The target of data set [1] is T1, Tyrosinase (Agaricus bisporus, UniProt O42713).
T1 sequence (O42713 whole entry): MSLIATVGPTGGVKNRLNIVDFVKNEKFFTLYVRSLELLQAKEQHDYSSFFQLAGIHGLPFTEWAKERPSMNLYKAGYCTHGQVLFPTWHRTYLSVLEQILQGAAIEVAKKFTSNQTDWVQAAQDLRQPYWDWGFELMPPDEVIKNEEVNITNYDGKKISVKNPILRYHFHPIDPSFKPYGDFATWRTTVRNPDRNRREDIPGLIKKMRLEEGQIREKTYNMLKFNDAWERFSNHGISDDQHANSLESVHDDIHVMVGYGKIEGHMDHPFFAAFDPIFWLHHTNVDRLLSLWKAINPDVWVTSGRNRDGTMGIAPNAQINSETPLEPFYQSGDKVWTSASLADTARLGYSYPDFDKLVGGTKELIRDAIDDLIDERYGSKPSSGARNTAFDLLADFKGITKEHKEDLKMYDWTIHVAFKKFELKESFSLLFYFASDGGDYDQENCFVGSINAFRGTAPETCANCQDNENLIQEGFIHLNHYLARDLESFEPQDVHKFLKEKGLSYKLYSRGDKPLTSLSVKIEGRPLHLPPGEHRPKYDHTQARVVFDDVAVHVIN
The data set is described as follows: Inhibition of mushroom tyrosinase after 15 mins.

Data set [2] deals with T1, Tyrosinase. The data set is described as follows: Competitive inhibition of mushroom tyrosinase after 15 mins by Lineweaver-Burke plot analysis.
Substrate in data set [3]: CC(C)c1cccc(=O)c(O)c1
Particulars: Agaricus bisporus; 0.05 uM.
Description: Inhibition of mushroom tyrosinase at 0.05 uM after 15 mins by Michaelis-Menten constant analysis

Substrate in data set [4]: CC(C)c1ccc(O)c(=O)cc1
Particulars: Agaricus bisporus; 0.06 uM.
Description: Inhibition of mushroom tyrosinase at 0.06 uM after 15 mins by Michaelis-Menten constant analysis

Substrate in data set [5]: CC(C)c1ccc(O)c(=O)cc1
The conditions noted are these: Agaricus bisporus; 0.02 uM.
Description: Inhibition of mushroom tyrosinase at 0.02 uM after 15 mins by Michaelis-Menten constant analysis

Substrate in data set [6]: CC(C)c1ccccc(=O)c1O
Particulars: Agaricus bisporus; 3 uM.
Description: Inhibition of mushroom tyrosinase at 3 uM after 15 mins by Michaelis-Menten constant analysis

Substrate in data set [7]: CC(C)c1ccccc(=O)c1O
The conditions noted are these: Agaricus bisporus; 6 uM.
Description: Inhibition of mushroom tyrosinase at 6 uM after 15 mins by Michaelis-Menten constant analysis

Substrate in data set [8]: CC(C)c1cccc(=O)c(O)c1
Description: Inhibition of mushroom tyrosinase at 0.20 uM after 15 mins by Michaelis-Menten constant analysis
The conditions noted are these: Agaricus bisporus; 0.20 uM.

The term IC50 denotes the concentration that gives 50% inhibition. The low end stands for greater potency in that assay, the high end for weaker potency in that assay. The term Ki denotes a measure of affinity in units of concentration, obtained from inhibition or displacement. With `CC(C)c1ccccc(=O)c1O` [ALPHA-THUJAPLICIN], it took 9530 nM to reach half-maximal inhibition against Tyrosinase [1] (IC50). This molecule also came in with an inhibition constant (Ki) at Tyrosinase [2] of 3300 nM.
On to `CC(C)c1ccc(O)c(=O)cc1` [GAMMA-THUJAPLICIN], for which the IC50 at Tyrosinase [1] turned out to be 70 nM. On Tyrosinase [2], this molecule showed an inhibition constant (Ki) of 20 nM.
As to `CC(C)c1cccc(=O)c(O)c1` [HINOKITIOL], the half-maximal inhibitory concentration (IC50) against Tyrosinase [1] is 90 nM. The same molecule returned a Ki on Tyrosinase [2] of 60 nM.

B1: Tyrosinase (Agaricus bisporus), O42713 (protein)
chain: MSLIATVGPTGGVKNRLNIVDFVKNEKFFTLYVRSLELLQAKEQHDYSSFFQLAGIHGLPFTEWAKERPSMNLYKAGYCTHGQVLFPTWHRTYLSVLEQILQGAAIEVAKKFTSNQTDWVQAAQDLRQPYWDWGFELMPPDEVIKNEEVNITNYDGKKISVKNPILRYHFHPIDPSFKPYGDFATWRTTVRNPDRNRREDIPGLIKKMRLEEGQIREKTYNMLKFNDAWERFSNHGISDDQHANSLESVHDDIHVMVGYGKIEGHMDHPFFAAFDPIFWLHHTNVDRLLSLWKAINPDVWVTSGRNRDGTMGIAPNAQINSETPLEPFYQSGDKVWTSASLADTARLGYSYPDFDKLVGGTKELIRDAIDDLIDERYGSKPSSGARNTAFDLLADFKGITKEHKEDLKMYDWTIHVAFKKFELKESFSLLFYFASDGGDYDQENCFVGSINAFRGTAPETCANCQDNENLIQEGFIHLNHYLARDLESFEPQDVHKFLKEKGLSYKLYSRGDKPLTSLSVKIEGRPLHLPPGEHRPKYDHTQARVVFDDVAVHVIN
Broadly, the Km is the substrate concentration at which the rate is half of its maximum. Take B1: the Km was 530 µM in data set [3]; 950 µM in data set [4]; 530 µM in data set [5]; 380 µM in data set [6]; 380 µM in data set [7]; 1160 µM in data set [8].

The values are drawn from ChEMBL document CHEMBL1275369, “Structural insights into the hot spot amino acid residues of mushroom tyrosinase for the bindings of thujaplicins” (Bioorg Med Chem, 2010).
